How the values were obtained:
Type in all cases: in vivo
Rhipicephalus microplus [1] = experiment: Rhipicephalus (Boophilus) microplus injection test (BOOPMI Inj); conditions: 168 h, injection into adult engorged female ticks, egg deposition after 7 days, read-out: activity (efficacy: 100% means all eggs are infertile); for pest or weed control at 0.004 mg: application rate 4 μg/tick; for pest or weed control at 0.02 mg: application rate 20 μg/tick
Outline: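 Five engorged adult female R. microplus ticks injected into the abdomen with 1 μL of compound diluted in DMSO, then kept in a climate chamber. Fertile egg deposition checked after 7 days; eggs without visible fertility held until hatching at about 42 days. Efficacy: 100% = all eggs infertile, 0% = all fertile.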

Rhipicephalus microplus [2] = experiment: Rhipicephalus (Boophilus) microplus in-vitro contact test, larval cattle tick, strain Parkhurst (BOOPMI Cont); conditions: application rate 5 μg/cm^2 (=500 g/ha), tick larvae, after 48 hours, read-out: activity (efficacy: 100% means all larvae are dead or moribund)
Outline: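 Acetone solutions dried onto glass tube walls (900 ppm giving 5 μg/cm^2); 20-50 pyrethroid-resistant Parkhurst larvae added per tube and held 48 h at 27° C., 85% relative humidity. Efficacy scored by negative geotaxis as % dead or moribund larvae.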

Ctenocephalides felis [3] = experiment: Ctenocephalides felis oral test (CTECFE Oral); conditions: 48 h, read-out: activity (mortality)
Method: Ctenocephalides felis—Oral Test (CTECFE Oral) Solvent: dimethyl sulfoxide
To produce a suitable preparation of active compound, 10 mg of active compound are dissolved in 0.5 mL solvent, and the concentrate is diluted with cattle blood to the desired concentration.
Approximately 20 adult unfed cat fleas (Ctenocephalides felis) are placed in flea chambers. The blood chamber, sealed with parafilm on the bottom, are filled with cattle blood supplied with compound solution and placed on the gauze covered top of the flea chamber, so that the fleas are able to suck the blood. The blood chamber is heated to 37° C. whereas the flea chamber is kept at room temperature.
After 2 days mortality in % is determined. 100% means all the fleas have been killed; 0% means none of the fleas have been killed.

Diabrotica balteata = Diabrotica balteata spray test; conditions: 168 h, wheat seeds, larvae, after 7 days, read-out: activity (efficacy: 100% means all seedlings have grown up like in the untreated, uninfected control); for pest or weed control at 32 µg/disc, 100 g/ha: application rate 100 g/ha (=32 μg/well); for pest or weed control at 160 µg/disc, 500 g/ha: application rate 500 g/ha (=160 μg/well)
Outline: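 Wheat seedlings, germinated 1 day on agar, were sprayed with compound in acetone/DMF diluted in water containing emulsifier, then infested with 10-20 Diabrotica balteata larvae. After 7 days efficacy in % was scored: 100% means seedlings grew like the untreated, uninfected control; 0% means none grew.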

Myzus persicae = Myzus persicae oral test; conditions: 120 h, read-out: activity (mortality)
Method: Myzus persicae—Oral Test Solvent: 100 parts by weight acetone
To produce a suitable preparation of active compound, 1 part by weight of active compound is mixed with the stated amount of solvent, and the concentrate is diluted with water to the desired concentration.
50 μL compound solution is filled in microtiter plates and 150 μL IPL41 insect medium (33%+15% sugar) is added to obtain a total volume of 200 μL per well. Afterwards the plates are sealed with parafilm through which a mixed population of the green peach aphid (Myzus persicae) can suck on the compound preparation.
After 5 days mortality in % is determined. 100% means all aphids have been killed and 0% means none of the aphids have been killed.

Spodoptera frugiperda = Spodoptera frugiperda spray test; conditions: in Zea mays, 168 h, read-out: activity (mortality)
Outline: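 Maize leaf sections were sprayed with compound formulated in acetone/DMF and diluted in water containing 1000 ppm emulsifier. Dried leaves were infested with fall armyworm larvae, and percent mortality was scored after 7 days.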

[4] = test system: Aedes aegypti strain MONHEIM; experiment: Aedes aegypti test (AEDSAE surface treatment & contact assay); conditions: exposure 30 minutes, 24 hours after contact, read-out: efficacy (mortality); for mortality at 4 mg/m2: surface concentration 4 mg/m^2, glazed tile; for mortality at 20 mg/m2: surface concentration 20 mg/m^2, glazed tile
Method: Aedes aegypti Test (AEDSAE Surface Treatment & Contact Assay) Solvent: Aceton+2000 ppm rapeseed oil methyl ester (RME)
(§1) In order to produce a sufficient, active ingredient containing solution it is necessary to solve the test compound in the solvent-mix (acetone at 2 mg/ml/RME 2000 ppm). This solution is pipetted onto a glazed tile and after evaporation of the acetone, adult mosquitoes of the species Aedes aegypti strain MONHEIM are placed onto the dried surface. The exposure time is 30 minutes. Mortality in percent (%) is determined 24 hours after contact of the insects to the treated surface. 100% mortality means that all tested insects are dead, whereas 0% means that no insect died.

[5] = test system: Musca domestica strain WHO—N; experiment: Musca domestica test (MUSCDO surface treatment & contact assay); conditions: exposure 30 minutes, 24 hours after contact, read-out: efficacy (mortality); for mortality at 20 mg/m2: surface concentration 20 mg/m^2, glazed tile; for mortality at 4 mg/m2: surface concentration 4 mg/m^2, glazed tile
Method: Musca domestica Test (MUSCDO Surface Treatment & Contact Assay) Solvent: Aceton+2000 ppm rapeseed oil methyl ester (RME)
as §1, with “flies” for “mosquitoes”, “Musca domestica” for “Aedes aegypti”, “WHO—N” for “MONHEIM”

Ctenocephalides felis [6] = experiment: Ctenocephalides felis in-vitro contact test, adult cat flea (CTECFE Cont); conditions: application rate 5 μg/cm^2 (=500 g/ha), adult cat fleas, after 48 hours, read-out: activity (efficacy: 100% means all fleas are dead or moribund)
Method: Ctenocephalides felis—In-Vitro Contact Tests Adult Cat Flea (CTECFE Cont)
9 mg compound is solved in 1 mL acetone and diluted with acetone to the desired concentration. 250 μL of the test solution is filled in 25 mL glass test tubes and homogeneously distributed on the inner walls by rotation and tilting on a shaking device (2 h at 30 rpm). With a compound concentration of 900 ppm, an inner surface of 44.7 cm^2 and a homogeneous distribution, a dose of 5 μg/cm^2 is achieved.
After the solvent has evaporated, each test tube is filled with 5-10 adult cat fleas (Ctenocephalides felis), closed with a perforated lid and incubated in a lying position at room temperature and relative humidity. After 48 hours efficacy is determined. The fleas are patted on the ground of the tubes and are incubated on a heating plate at 45-50° C. for at most 5 minutes. Immotile or uncoordinated moving fleas, which are not able to escape the heat by climbing upwards, are marked as dead or moribund.
An efficacy of 100% means all fleas are dead or moribund; 0% means no fleas are dead or moribund.

Rhipicephalus sanguineus = Rhipicephalus sanguineus in-vitro contact test, adult brown dog ticks (RHIPSA Cont); conditions: 48 h, after 48 hours, read-out: activity (efficacy: 100% means all ticks are dead or moribund); for pest or weed control at 1 µg/cm2, 100 g/ha: application rate 1 μg/cm^2 (=100 g/ha); for pest or weed control at 5 µg/cm2, 500 g/ha: application rate 5 μg/cm^2 (=500 g/ha)
Outline: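 Compound in acetone was coated onto the inner walls of glass tubes and dried by rotation before adult brown dog ticks were exposed. Efficacy was scored at 48 h. Ticks unable to climb away from a 45–50 °C heating plate within 5 min counted as dead or moribund.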

Row | SMILES | pest or weed control at 0.004 mg (Rhipicephalus microplus [1]) | pest or weed control at 0.02 mg (Rhipicephalus microplus [1]) | pest or weed control at 5 µg/cm2 (Rhipicephalus microplus [2]) | mortality at 100 ppm (Ctenocephalides felis [3]) | pest or weed control at 32 µg/disc, 100 g/ha (Diabrotica balteata) | pest or weed control at 160 µg/disc, 500 g/ha (Diabrotica balteata) | mortality at 4 ppm (Myzus persicae) | mortality at 100 g/ha (Spodoptera frugiperda) | mortality at 4 mg/m2 [4] | mortality at 20 mg/m2 [4] | mortality at 20 mg/m2 [5] | pest or weed control at 5 µg/cm2 (Ctenocephalides felis [6]) | mortality at 500 g/ha (Spodoptera frugiperda) | mortality at 4 mg/m2 [5] | pest or weed control at 1 µg/cm2, 100 g/ha (Rhipicephalus sanguineus) | pest or weed control at 5 µg/cm2, 500 g/ha (Rhipicephalus sanguineus) | mortality at 0.8 ppm (Myzus persicae)
1 | CC(NC(=O)c1cc(Cl)cc(C(F)(F)F)c1)c1nc(C(F)F)nn1-c1ccc(C#N)cn1 (racemic) [I-9] | 100% | 100% | 100% | 100% | 100% | 100% | 100% | 100% | 80 to 100% | 80 to 100% | 80 to 100% |  |  |  |  |  | 
2 | CCc1nc([C@H](C)NC(=O)c2cc(Cl)cc(C(F)(F)F)c2)n(-c2ccc(C#N)cn2)n1 [I-3] | 100% | 100% | 100% |  | 100% | 100% | 90% | 100% | 80 to 100% | 80 to 100% | 80 to 100% | 100% | 100% | 80 to 100% |  |  | 
3 | CC(C)c1nc([C@H](C)NC(=O)c2cc(Br)cc(C(F)(F)F)n2)n(-c2ccc(C#N)cn2)n1 [I-20] |  |  |  |  |  |  |  |  |  |  |  | 80% |  |  |  |  | 
4 | CC(C)c1nc([C@H](C)NC(=O)c2cc(Br)cc(Br)c2)n(-c2ccc(C#N)cn2)n1 [I-24] | 100% | 100% | 100% | 100% | 100% |  |  | 100% |  |  |  | 80% |  |  | 100% | 100% | 
5 | C[C@H](NC(=O)c1cc(C#N)cc(C(F)(F)F)c1)c1nc(C2CC2)nn1-c1ccc(C#N)cn1 [I-44] | 100% |  | 100% | 100% | 100% |  |  | 100% | 80 to 100% | 80 to 100% | 80 to 100% |  |  | 80 to 100% |  |  | 90%
6 | COc1nc([C@H](C)NC(=O)c2cc(Br)cc(Br)c2)n(-c2ccc(C#N)cn2)n1 [I-61] | 100% |  | 100% |  | 100% |  | 100% | 100% |  |  |  | 80% |  |  | 100% | 100% | 
7 | CC(C)N(C(=O)c1ccc(-n2ncnc2[C@H](C)NC(=O)c2cc(Cl)cc(C(F)(F)F)c2)nc1)C1CC1 [II-29] | 100% | 100% | 100% | 100% | 100% | 100% |  | 83% | 80 to 100% | 80 to 100% |  | 100% | 100% |  | 100% | 100% | 
8 | C[C@H](NC(=O)c1cc(Cl)cc(OC(F)(F)F)c1)c1ncnn1-c1cc(C#N)ccn1 [II-33] | 100% | 100% | 100% |  | 100% | 100% | 100% | 100% | 80 to 100% | 80 to 100% | 80 to 100% | 90% | 100% | 80 to 100% | 80% | 80% | 
9 | CCN(CC)C(=O)c1ccnc(-n2ncnc2[C@H](C)NC(=O)c2cc(C(F)(F)F)cc(C(F)(F)F)c2)c1 [II-85] |  |  | 100% |  | 100% |  | 100% | 83% |  |  |  | 100% |  |  | 100% | 100% | 
10 | C[C@H](NC(=O)c1cc(C(F)(F)F)cc(C(F)(F)F)c1)c1ncnn1-c1cc(C(=O)N(C)CC(F)(F)F)ccn1 [II-88] |  |  | 100% |  | 100% |  | 100% | 100% |  |  |  | 100% |  |  |  |  | 
11 | CC(C)CNC(=O)c1ccnc(-n2ncnc2[C@H](C)NC(=O)c2cc(C(F)(F)F)cc(C(F)(F)F)c2)c1 [II-90] |  |  | 100% |  |  |  | 100% | 83% |  |  |  | 80% |  |  |  |  | 
12 | C[C@H](NC(=O)c1cc(Cl)cc(C(F)(F)F)c1)c1ncnn1-c1cc(-n2ccnc2)ccn1 [II-102] | 100% |  | 90% | 100% |  |  |  |  |  |  |  | 80% |  |  |  |  | 
13 | C[C@H](NC(=O)c1cc(Br)cc(I)c1)c1ncnn1-c1ccc(C#N)cn1 [II-112] | 100% |  | 100% | 100% | 100% |  |  | 100% |  |  |  | 80% |  |  | 100% | 100% | 

— patent US20220274947A1, “NOVEL HETEROARYL-TRIAZOLE COMPOUNDS AS PESTICIDES” (Bayer Aktiengesellschaft, priority 2019, published 2022)
